We go through twelve compounds from patent publication US20240092791A1, “DIHYDROFUROPYRIDINE DERIVATIVES AS RHO-KINASE INHIBITORS” (CHIESI FARMACEUTICI S.P.A., priority 2020, published 2024).

The target in one experiment is Rho kinase 1 (ROCK1) (Homo sapiens, UniProt Q13464). The experiment in a line: In vitro inhibitory activity assay ROCK1 (ADP-Glo). In kind it is biochemical. The following applies: ATP 200 μM, Cheng-Prusoff from IC50; read-out: ROCK 1 (Ki, range of activity). As to the method:
(§1) The effectiveness of compounds of the present invention to inhibit Rho kinase activity can be determined in a 10 μl assay containing 40 mM Tris pH7.5, 20 mM MgCl2 0.1 mg/mL BSA, 50 μM DTT and 2.5 μM peptide substrate (Myelin Basic Protein) using an ADP-Glo kit (Promega). Compounds were dissolved in DMSO such that the final concentration of DMSO was 1% in the assay. All reactions/incubations are performed at 25° C. Compound (2 ul) and either Rho kinase 1 or 2 (4 μl) were mixed and incubated for 30 mins. Reactions were initiated by addition of ATP (4μ1) such that the final concentration of ATP in the assay was 200 μM. After a 1 hour incubation 10 μl of ADP-Glo Reagent was added and after a further 1 hour incubation 20 ul of Kinase Detection Buffer was added and the mixture incubated for a further 45 minutes. The luminescent signal was measured on a luminometer. […] Compounds were tested in dose-response format and the inhibition of kinase activity was calculated at each concentration of compound. To determine the IC50 (concentration of compound required to inhibit 50% of the enzyme activity) data were fit to a plot of % inhibition vs Log10 compound concentration using a sigmoidal fit with a variable slope and fixing the maximum to 100% and the minimum to 0%. To determine the Ki values the Cheng-Prusoff equation was utilized (Ki=IC50/(1+[S]/Km).

Experiment [1] concerns cch-evoked bronchoconstriction. The experiment in a line: Experimental bronchospasm (carbachol-induced bronchoconstriction, Konzett & Roessler). Type of experiment: in vivo, Male CD Sprague Dawley rats. The following applies: for inhibition in vivo at 0.01 mg/kg / inhibition in vivo at 0.003 mg/kg: iv, rat, 1 hour after administration, carbachol 80 μg/kg i.v., read-out: Inhibition % (±s.e. mean) of cch-evoked bronchoconstriction; for inhibition in vivo at 0.01 mg/kg: dose 10 μg/Kg intratracheal; for inhibition in vivo at 0.003 mg/kg: dose 3 μg/Kg intratracheal. As to the method:
Male CD Sprague Dawley rats (220-250 g) were purchased from Charles River Laboratories Italy (Calco, Lecco). Prior to use animals were acclimated for at least 5 days 20 to the local vivarium conditions (room temperature: 20-24° C.; relative humidity: 40-70%), having free access to standard rat chow and softened tap water. All the procedures were performed in animal operating rooms according to ethical guidelines for the conduct of animal research (D. L.vo 116/92).
Rats were anaesthetized with a combination of anesthetics (Zoletil 20 mg/kg+Xylazine 5 mg/kg, ip) for the i.t. administration. A laryngoscope was moved forward into the mouth to visualize the trachea and guide the insertion of the tip of a custom-made small diameter cannula directly into the trachea and located 1-2 mm above the bifurcation.
In order to assess the residual inhibitory activity of test compounds 1 hour after their administration, rats were surgically prepared. Body temperature was kept constant at 37° C. by a heated blanket.
The trachea was cannulated and the lungs were ventilated artificially with a constant volume ventilator (rodent ventilator mod. 7025, Ugo Basile, Comerio, Varese, Italy) at a frequency of 80 strokes/min and at a tidal volume of 10 ml/kg. To avoid spontaneous breathing, the animals were injected intravenously (i.v.) with pancuronium bromide (2 mg/kg).
Bronchoconstriction was induced by the i.v. injection of carbachol (cch) 80 μg/kg. In control experiments, repeated injections of this dose produced reproducible short-lasting (1-2 min duration) bronchospasms. Bronchoconstriction, quantified as a reduction of tidal volume, was evaluated according to the method described by Konzett & Roessler (1). Systemic blood pressure and changes in airway resistance were monitored with a digital pressure transducer.
After stabilisation of artificial breathing and blood pressure, animals were injected (i.v.) with cch every 3 min, until 3 stable and reproducible basal responses were obtained. […] The effect of test compounds was 15 expressed as % inhibition of cch-evoked bronchoconstriction in time-matched, vehicle-treated, animals (controls).
Tested compounds were dissolved in dH2O and 1% Tween-80 or 0,001% HCl and further diluted to target concentrations. Tested compounds were instilled locally into the trachea in a volume of 125 μl.
All data are presented as mean±s.e.mean. The % inhibition of experimental bronchospasm was calculated comparing the drug-treated with the vehicle-treated control animals. Data analysis was performed using GraphPad Prism software.

For the next experiment, the target named is Rho kinase 2 (ROCK2) (Homo sapiens, UniProt O75116). The experiment in a line: In vitro inhibitory activity assay ROCK2 (ADP-Glo). In kind it is biochemical. The following applies: ATP 200 μM, Cheng-Prusoff from IC50; read-out: ROCK2 (Ki, range of activity). As to the method: as §1
For a further experiment, the target named is PKA (Homo sapiens, UniProt P17612). The experiment in a line: In vitro inhibitory activity assay for PKA (ADP-Glo), reported as selectivity ratio vs ROCK2. Type of experiment: biochemical. The settings on record: Ki value for PKA divided by Ki value of ROCK2. As for the experimental part: The effectiveness of compounds of the present invention to inhibit PKA activity can be determined in a 10 μl assay containing 40 mM Tris pH7.5, 20 mM MgCl2 0.1 mg/ml BSA, 50 μM DTT and 260 μM peptide substrate (kemptide) using an ADP-Glo kit (Promega). Compounds were dissolved in DMSO such that the final concentration of DMSO was 1% in the assay. All reactions/incubations are performed at 25° C. Compound and PKA enzyme (6 μl) were mixed and incubated for 30 mins. Reactions were initiated by addition of ATP (4 μl ) such that the final concentration of ATP in the assay was 10 μM. After a 30 minute incubation 10 μl of ADP-Glo Reagent was added and after a further 1 hour incubation 20 μl of Kinase Detection Buffer was added and the mixture incubated for a further 45 minutes. The luminescent signal was measured on a luminometer. […] Compounds were tested in dose-response format and the inhibition of kinase activity was calculated at each concentration of compound. To determine the IC50 (concentration of compound required to inhibit 50% of the enzyme activity) data were fit to a plot of % inhibition vs Logio compound concentration using a sigmoidal fit with a variable slope and fixing the maximum to 100% and the minimum to 0%. To determine the Ki values the Cheng-Prusoff equation was utilized (Ki=IC50/(1+[S]/Km).
In vitro inhibitory activities for PKA were reported as selectivity ratio vs. ROCK-2.

A value given as a limit tells only on which side of the number the result lay.

Rho kinase 2 (ROCK2), sequence (O75116 whole entry): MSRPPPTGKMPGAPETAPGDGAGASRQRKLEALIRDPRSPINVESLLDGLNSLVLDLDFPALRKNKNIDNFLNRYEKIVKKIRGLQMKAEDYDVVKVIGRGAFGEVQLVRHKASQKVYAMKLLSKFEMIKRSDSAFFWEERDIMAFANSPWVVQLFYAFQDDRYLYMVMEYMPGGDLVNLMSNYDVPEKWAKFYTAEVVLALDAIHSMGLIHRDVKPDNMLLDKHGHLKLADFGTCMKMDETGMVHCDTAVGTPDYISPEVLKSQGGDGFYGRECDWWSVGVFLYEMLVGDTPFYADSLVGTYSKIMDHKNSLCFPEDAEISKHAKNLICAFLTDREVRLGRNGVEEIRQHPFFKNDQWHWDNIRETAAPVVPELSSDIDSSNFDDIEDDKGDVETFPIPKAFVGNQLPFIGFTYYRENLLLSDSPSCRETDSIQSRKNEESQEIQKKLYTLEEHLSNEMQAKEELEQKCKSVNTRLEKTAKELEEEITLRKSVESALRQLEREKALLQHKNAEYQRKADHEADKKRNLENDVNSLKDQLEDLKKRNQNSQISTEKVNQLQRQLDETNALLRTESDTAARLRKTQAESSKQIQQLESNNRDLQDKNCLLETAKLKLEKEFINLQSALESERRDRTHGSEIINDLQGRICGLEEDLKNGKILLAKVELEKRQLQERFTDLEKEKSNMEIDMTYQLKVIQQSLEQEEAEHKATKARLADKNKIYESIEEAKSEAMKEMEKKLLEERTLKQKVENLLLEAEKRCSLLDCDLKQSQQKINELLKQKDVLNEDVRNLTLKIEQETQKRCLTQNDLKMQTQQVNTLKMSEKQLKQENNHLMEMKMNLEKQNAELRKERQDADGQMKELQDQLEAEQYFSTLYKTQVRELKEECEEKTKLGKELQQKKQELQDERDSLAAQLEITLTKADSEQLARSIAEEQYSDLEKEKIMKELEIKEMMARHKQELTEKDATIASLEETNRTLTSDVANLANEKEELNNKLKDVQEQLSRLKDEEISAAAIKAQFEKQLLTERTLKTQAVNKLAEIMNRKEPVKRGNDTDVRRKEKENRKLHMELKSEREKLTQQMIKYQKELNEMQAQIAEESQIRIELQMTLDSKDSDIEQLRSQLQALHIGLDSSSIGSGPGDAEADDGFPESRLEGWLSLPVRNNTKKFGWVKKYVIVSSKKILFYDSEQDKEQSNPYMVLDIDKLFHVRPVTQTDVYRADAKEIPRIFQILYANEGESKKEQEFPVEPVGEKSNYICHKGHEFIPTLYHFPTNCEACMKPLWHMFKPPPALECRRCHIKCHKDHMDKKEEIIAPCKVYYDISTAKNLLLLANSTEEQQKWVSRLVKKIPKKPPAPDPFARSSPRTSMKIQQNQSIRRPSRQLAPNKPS
Rho kinase 1 (ROCK1), sequence (Q13464 whole entry): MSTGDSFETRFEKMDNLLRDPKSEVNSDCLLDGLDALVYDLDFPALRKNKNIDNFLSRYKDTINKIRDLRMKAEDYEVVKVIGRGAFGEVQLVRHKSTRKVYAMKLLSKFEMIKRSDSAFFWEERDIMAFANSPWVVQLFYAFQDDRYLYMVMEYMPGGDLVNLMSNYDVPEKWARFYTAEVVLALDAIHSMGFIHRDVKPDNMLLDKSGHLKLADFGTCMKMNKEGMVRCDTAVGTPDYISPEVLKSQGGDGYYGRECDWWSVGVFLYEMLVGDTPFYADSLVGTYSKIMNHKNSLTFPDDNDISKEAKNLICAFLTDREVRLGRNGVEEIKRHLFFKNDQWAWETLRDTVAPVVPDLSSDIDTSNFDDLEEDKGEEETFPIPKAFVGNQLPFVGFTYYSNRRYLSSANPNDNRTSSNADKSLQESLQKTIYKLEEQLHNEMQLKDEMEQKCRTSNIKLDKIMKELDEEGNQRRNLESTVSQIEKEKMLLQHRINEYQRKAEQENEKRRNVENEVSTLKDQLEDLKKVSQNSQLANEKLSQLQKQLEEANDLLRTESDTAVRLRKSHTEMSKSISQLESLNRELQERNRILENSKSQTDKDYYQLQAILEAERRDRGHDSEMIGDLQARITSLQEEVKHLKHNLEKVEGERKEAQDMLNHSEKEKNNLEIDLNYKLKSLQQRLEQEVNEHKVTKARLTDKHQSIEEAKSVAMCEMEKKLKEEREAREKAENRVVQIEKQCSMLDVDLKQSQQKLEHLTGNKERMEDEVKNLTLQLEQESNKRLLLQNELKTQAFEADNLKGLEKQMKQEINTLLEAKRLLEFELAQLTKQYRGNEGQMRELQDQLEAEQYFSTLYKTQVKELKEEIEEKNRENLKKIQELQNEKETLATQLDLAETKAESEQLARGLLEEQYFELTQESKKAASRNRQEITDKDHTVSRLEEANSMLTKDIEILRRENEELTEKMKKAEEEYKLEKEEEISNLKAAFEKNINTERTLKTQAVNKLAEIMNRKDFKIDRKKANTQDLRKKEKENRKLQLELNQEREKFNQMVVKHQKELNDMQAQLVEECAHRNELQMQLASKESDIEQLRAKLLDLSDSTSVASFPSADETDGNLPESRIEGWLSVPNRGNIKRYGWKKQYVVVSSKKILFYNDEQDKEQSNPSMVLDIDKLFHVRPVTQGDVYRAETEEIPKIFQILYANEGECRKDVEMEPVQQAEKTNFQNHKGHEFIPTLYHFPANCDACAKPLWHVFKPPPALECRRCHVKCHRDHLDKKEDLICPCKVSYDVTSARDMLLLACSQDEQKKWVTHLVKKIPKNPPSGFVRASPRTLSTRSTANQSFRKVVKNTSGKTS

With `CNCCNc1ccc(NC(=O)c2cccc(CNc3ncc(-c4ccnc(N)n4)c4c3CCO4)c2)nc1` [Example 70, 3-(((7-(2-aminopyrimidin-4-yl)-2,3-dihydrofuro[3,2-c]pyridin-4-yl)amino)methyl)-N-(5-((2-(methylamino)ethyl)amino)pyridin-2-yl)benzamide], the Ki on Rho kinase 1 (ROCK1) and on Rho kinase 2 (ROCK2) was at most 3 nM in each case. For the same compound, the inhibition in vivo at 0.01 mg/kg in experiment [1] is 62.2 ± 7%. The “Ratio (PKA/ROCK2)” value at PKA was “*** (ratio≥10)”.
For `CN1CCN(Cc2ccc(NC(=O)c3cccc(CNc4ncc(-c5ccnc(N)n5)c5c4CCO5)c3)nc2)CC1` [Example 78, 3-(((7-(2-aminopyrimidin-4-yl)-2,3-dihydrofuro[3,2-c]pyridin-4-yl)amino)methyl)-N-(5-((4-methylpiperazin-1-yl)methyl)pyridin-2-yl)benzamide], the inhibition constant (Ki) on Rho kinase 1 (ROCK1) and on Rho kinase 2 (ROCK2) was at most 3 nM in each case. The inhibition in vivo at 0.01 mg/kg in experiment [1] is 68.8 ± 8.6%. Also, the “Ratio (PKA/ROCK2)” value at PKA was “*** (ratio≥10)”.
`CN1CCN(C)C(COc2ccc(NC(=O)c3cccc(CNc4ncc(-c5ccnc(N)n5)c5c4CCO5)c3)nc2)C1` (single isomer, unassigned) [Example 82, 3-(((7-(2-aminopyrimidin-4-yl)-2,3-dihydrofuro[3,2-c]pyridin-4-yl)amino)methyl)-N-(5-((1,4-dimethylpiperazin-2-yl)methoxy)pyridin-2-yl)benzamide]: the Ki on Rho kinase 1 (ROCK1) and at Rho kinase 2 (ROCK2) was at most 3 nM throughout. Further, the inhibition in vivo at 0.01 mg/kg in experiment [1] stood at 69.7 ± 3.4%. Besides, the “Ratio (PKA/ROCK2)” value on PKA is reported as “*** (ratio≥10)”.
`CNCc1ccc(NC(=O)c2cccc(CNc3ncc(-c4ccnc(N)n4)c4c3CCO4)c2)nc1` [Example 84, 3-(((7-(2-Aminopyrimidin-4-yl)-2,3-dihydrofuro[3,2-c]pyridin-4-yl)amino)methyl)-N-(5-((methylamino)methyl)pyridin-2-yl)benzamide]: the Ki on Rho kinase 1 (ROCK1) and on Rho kinase 2 (ROCK2) was at most 3 nM each time. The inhibition in vivo at 0.01 mg/kg in experiment [1] came out at 89.5 ± 2%. Moreover, the “Ratio (PKA/ROCK2)” value at PKA is reported as “*** (ratio≥10)”.
For the compound `CN(C)CCNc1ccc(NC(=O)c2cccc(CNc3ncc(-c4ccnc(N)n4)c4c3CCO4)c2)nc1` [Example 77, 3-(((7-(2-aminopyrimidin-4-yl)-2,3-dihydrofuro[3,2-c]pyridin-4-yl)amino)methyl)-N-(5-((2-(dimethylamino)ethyl)amino)pyridin-2-yl)benzamide], the Ki on Rho kinase 1 (ROCK1) and at Rho kinase 2 (ROCK2) was at most 3 nM in each case. Also, the inhibition in vivo at 0.003 mg/kg in experiment [1] was found to be 79%. Moreover, at PKA, the “Ratio (PKA/ROCK2)” value is listed as “*** (ratio≥10)”.
For the compound `CNC1(COc2ccc(NC(=O)c3cccc(CNc4ncc(-c5ccnc(N)n5)c5c4CCO5)c3)nc2)CCOCC1` [Example 80, 3-(((7-(2-aminopyrimidin-4-yl)-2,3-dihydrofuro[3,2-c]pyridin-4-yl)amino)methyl)-N-(5-((4-(methylamino)tetrahydro-2H-pyran-4-yl)methoxy)pyridin-2-yl)benzamide], the Ki on Rho kinase 1 (ROCK1) and at Rho kinase 2 (ROCK2) was at most 3 nM each time. Besides, the inhibition in vivo at 0.01 mg/kg in experiment [1] was 85.7 ± 0.8%. On PKA, the “Ratio (PKA/ROCK2)” value is given as “*** (ratio≥10)”.
Consider `Nc1nccc(-c2cnc(NCc3cccc(C(=O)Nc4ccc(OC[C@]5(F)CCNC5)cn4)c3)c3c2OCC3)n1` [Example 79, (S)-3-(((7-(2-aminopyrimidin-4-yl)-2,3-dihydrofuro[3,2-c]pyridin-4-yl)amino)methyl)-N-(5-((3-fluoropyrrolidin-3-yl)methoxy)pyridin-2-yl)benzamide], for which the Ki on Rho kinase 1 (ROCK1) and at Rho kinase 2 (ROCK2) was at most 3 nM throughout. Moreover, in experiment [1], the inhibition in vivo at 0.01 mg/kg amounted to 58 ± 6%. Besides, the “Ratio (PKA/ROCK2)” value on PKA is “*** (ratio≥10)”.
With `COc1ccc(NC(=O)c2cccc(CNc3ncc(-c4ccnc(N)n4)c4c3CCO4)c2)nc1` [Example 51, 3-(((7-(2-Aminopyrimidin-4-yl)-2,3-dihydrofuro[3,2-c]pyridin-4-yl)amino)methyl)-N-(5-methoxypyridin-2-yl)benzamide], the Ki on Rho kinase 1 (ROCK1) and at Rho kinase 2 (ROCK2) was at most 3 nM throughout. The inhibition in vivo at 0.01 mg/kg in experiment [1] came out at 3.1 ± 14.8%. For the same compound, in experiment [1] (rat bronchospasm test, internal comparator vs compounds with bulky moiety W), the “activity as bronchodilator (in words)” value is listed as “markedly lower activity as bronchodilator”. The “Ratio (PKA/ROCK2)” value at PKA was “*** (ratio≥10)”.
Consider `CNCCOc1ccc(NC(=O)c2cccc(CNc3ncc(-c4ccnc(N)n4)c4c3CCO4)c2)nc1` [Example 73, 3-(((7-(2-aminopyrimidin-4-yl)-2,3-dihydrofuro[3,2-c]pyridin-4-yl)amino)methyl)-N-(5-(2-(methylamino)ethoxy)pyridin-2-yl)benzamide], for which the Ki on Rho kinase 1 (ROCK1) and at Rho kinase 2 (ROCK2) was at most 3 nM throughout. Also, the inhibition in vivo at 0.01 mg/kg in experiment [1] is 76.6 ± 6%. For the same compound, the “Ratio (PKA/ROCK2)” value at PKA is given as “*** (ratio≥10)”.
`Nc1nccc(-c2cnc(NCc3cccc(C(=O)Nc4ccc(OC5CCNCC5)cn4)c3)c3c2OCC3)n1` [Example 71, 3-(((7-(2-aminopyrimidin-4-yl)-2,3-dihydrofuro[3,2-c]pyridin-4-yl)amino)methyl)-N-(5-(piperidin-4-yloxy)pyridin-2-yl)benzamide]: the Ki at Rho kinase 1 (ROCK1) and on Rho kinase 2 (ROCK2) was at most 3 nM throughout. In experiment [1], the inhibition in vivo at 0.003 mg/kg was 47.9 ± 7.7%. Further, at PKA, the “Ratio (PKA/ROCK2)” value is recorded as “*** (ratio≥10)”.
Regarding `C[C@@H]1CNCCN1c1ccc(NC(=O)c2cccc(CNc3ncc(-c4ccnc(N)n4)c4c3CCO4)c2)nc1` [Example 69, (R)-3-(((7-(2-aminopyrimidin-4-yl)-2,3-dihydrofuro[3,2-c]pyridin-4-yl)amino)methyl)-N-(5-(2-methylpiperazin-1-yl)pyridin-2-yl)benzamide], the Ki at Rho kinase 1 (ROCK1) and at Rho kinase 2 (ROCK2) was at most 3 nM each time. Moreover, in experiment [1], the inhibition in vivo at 0.01 mg/kg amounted to 74.8 ± 7.8%. The “Ratio (PKA/ROCK2)” value on PKA is given as “*** (ratio≥10)”.
In the case of `CN1C[C@H]2C[C@@H]1CN2c1ccc(NC(=O)c2cccc(CNc3ncc(-c4ccnc(N)n4)c4c3CCO4)c2)nc1` [Example 74], the Ki at Rho kinase 1 (ROCK1) and at Rho kinase 2 (ROCK2) was at most 3 nM each time. Also, in experiment [1], the inhibition in vivo at 0.003 mg/kg came out at 77.7 ± 4%. Also, at PKA, the “Ratio (PKA/ROCK2)” value is “*** (ratio≥10)”.
